Test results as given in patent publication US20190330142A1, “INHIBITORS OF MTOR-DEPTOR INTERACTIONS AND METHODS OF USE THEREOF” (The Regents of the University of California, priority 2016, published 2019).
Like-named read-outs stand apart in the source and are kept apart here.

Tests used:
[1] = test system: MM1.S MM cell line; assay: MTT cytotoxicity assay, MM1.S cells; type: cell-based; conditions: Homo sapiens, 48 hr
Method: The MTT assay was performed by seeding 1-2×10^4 target cells in 0.1 ml of complete media into wells of a 96 well microtiter plate. After incubation with compounds, the reduction of MTT to formazan by live cells was determined with a microplate ELISA reader equipped with a 570 nm filter. Quadruplicate wells were run for each group and the SD of each group was always <5% of the mean.

[2] = test system: p70 phosphorylation (mTORC1 activity) in 8226 cells; assay: p70 phosphorylation Western blot (TORC1 activity) in 8226 cells; type: cell-based; conditions: 6 hrs; for induction of p70 phosphorylation: 8226 cells, 0.5 uM, compared to compound B; for p70 phosphorylation vs compound B at lower concentrations: as low as 0.25 uM
Method: In mTORC1, mTOR phosphorylates the p70S6 kinase.
(§1) The 8226 and MM1.S myeloma cell lines were purchased from ATCC. The cell lines were characterized by FISH analysis and shown to contain MAF/Ig translocations. Western blot confirmed a significant over-expression of DEPTOR protein. Both lines were tested for mycoplasma within the last 6 months and were negative. Western blot assay—Protein was extracted and separated by 12.5% SDS-PAGE as previously described (see new ref below). Proteins were transferred to polyvinylidene difluoride membranes and their expression was detected utilizing specific antibodies purchased from Cell Signaling (Beverly, Mass.).

[3] = test system: 8226 MM cell line; assay: MTT cytotoxicity assay, 8226 MM cells; conditions: for anti-MM cytotoxicity in MTT assay compared to parent B: 48 hr MTT
Method: In mTORC1, mTOR phosphorylates the p70S6 kinase. Thus, a Western blot was used to test for induction of p70 phosphorylation in this secondary screen. Compounds were tested at 0.5, 1, and 2 uM with 6 hrs in vitro exposure. […] A summary of the p70 phosphorylation data from 4 separate experiments where derivatives were used at 0.5 uM, is shown in FIG. 3B. These first 8 derivatives were also screened for cytotoxicity against the same 8226 MM cell line in 48 hr MTT assays.
P70 phosphorylation was measured in 8226 cells treated for 6 hrs. […] The structures and biological activity of all derivatives are shown in Tables 1-4, categorized by structural modification.
The MTT assay was performed by seeding 1-2×10^4 target cells in 0.1 ml of complete media into wells of a 96 well microtiter plate. After incubation with compounds, the reduction of MTT to formazan by live cells was determined with a microplate ELISA reader equipped with a 570 nm filter.
The induction of p70 phosphorylation by derivative compounds was determined by densitometry, comparing immunoblot signals of phosphorylated p70 vs total p70. This ratio was then compared to that resulting from parental compound B, with the latter ratio arbitrarily placed at ‘1’. The IC50 for MTT cytotoxicity was determined using a range of concentrations of derivatives. Percent apoptosis was enumerated by flow cytometry in drug-treated cultures by subtracting control apoptosis determined from DMSO-treated cultures.

[4] = test system: 8226 cells; assay: apoptosis assay (activated caspase 3, flow cytometry) in 8226 cells; type: cell-based; conditions: 48 hrs
Method: (§2) These were then studied in more detail. […] This was clearly shown for 4d, 4e, 4 g, and 3 g.
To identify apoptotic cells, a phycoerythrin (PE)-conjugated antibody specific for activated caspase 3 (BD Biosciences) was used. For staining, 10^6 cells were washed with PB S and fixed and permeabilized with 0.5 ml cytofix/cytoperm solution. The cells were then incubated with a 1:5 dilution of PE-conjugated monoclonal anti-caspase 3 antibody for 30 mins and analyzed by flow cytometry.

[5] = test system: RAPTOR-silenced MM cells; assay: MTT cytotoxicity in RAPTOR-silenced MM cells; type: cell-based; conditions: 48 hrs
Method: (§3) FIG. 5A-FIG. 5E depict exemplary assay data of compounds disclosed herein. […] Therapeutic indices (TIs) calculated as IC50 PBLs/IC50 for 8226 cells.
(§4) To compare anti-myeloma efficacy to non-specific toxicity, each of these 5 active derivatives were compared to compound B in their ability to inhibit survival of 8226 MM cells versus normal peripheral blood lymphocytes (PBLs). In head-to-head experiments, IC50 values for each target were calculated and compared. […] These derivatives were also tested for their anti-MM cytotoxicity in isogenic lines with RAPTOR knockdown.
The short hairpin RNAs (shRNA)/pLKO.1, targeting RAPTOR or a scrambled sequence (control) were obtained from Addgene. Lentivirus was produced by the UCLA Vector Core facility and stable cell lines were made by transducing cells with lentivirus and selecting in […].

[6] = test system: normal peripheral blood lymphocytes (PBLs); assay: survival of normal peripheral blood lymphocytes versus 8226 MM cells; type: cell-based; conditions: 48 hr assays
Method: as §3, §4

[7] = target: T1, DEPTOR/mTOR binding (Homo sapiens, UniProt Q8TB45); assay: DEPTOR/mTOR co-immunoprecipitation in 8226 MM cells; type: cell-based; conditions: for DEPTOR/mTOR binding in MM cells: 6 hrs
T1 construct: Western blot confirmed a significant over-expression of DEPTOR protein; host or cells: 8226 multiple myeloma cells

[8] = test system: p21 expression; assay: p21 expression immunoblot; type: cell-based
Method: as §2, §1

[9] = target: T2, DEPTOR-mTOR interaction (Homo sapiens, UniProt Q8TB45); assay: yeast-2-hybrid screen of NCI library; type: cell-based; conditions: pilot screening, hits
T2 construct: expressed in transfected cells; host or cells: yeast (two-hybrid)
From the text: (§5) The third compound, NSC118305, presented several positions for variation but we were worried about the conjugated diene unit since such polyolefinic units might give a rise to non-selective toxicity. […] Therefore the final compound shown, NSC 126405, which was called simply compound B, was chosen as the first compound to modify to try to improve its activity.

[10] = test system: H929; assay: therapeutic index against H929 myeloma cell line; type: cell-based
From the text: (§6) FIG. 6A-FIG. 6D depict exemplary assay data for compounds disclosed herein. […] FIG. 6D highlights IC50 data for 3 g and Compound B (NSC126405).

[11] = target: T3, DEPTOR (Homo sapiens, UniProt Q8TB45); assay: DEPTOR degradation; type: cell-based
T3 construct: endogenous in cells
From the text: FIG. 7A-FIG. 7F depict exemplary assay data for compounds disclosed herein. […] FIG. 7E and FIG. 7F depict data showing the anti-tumor effect was blunted by further transfection of DEPTOR to over-express the protein.

[12] = test system: OPM2; assay: therapeutic index against OPM2 myeloma cell line; type: cell-based
From the text: as §6

[13] = test system: 8226 myeloma tumors; assay: subcutaneous xenograft tumor model of myeloma growth; type: in vivo, mice; conditions: 20 mg/kg IP daily for 4 days
Method: Peripheral blood was analyzed for white blood cell (WBC), hematocrit (HCT), hemoglobin concentration (HgI) and platelet count.
Briefly, mice were challenged subcutaneously with 5×10^6 8226 cells and when myeloma tumors reached 500 mm^3, mice were treated with DMSO, compound B, or compound 3g (at 20 mg/kg) IP daily for 4 days. Tumor size (mean+/−SD, n=5) was assessed each day (FIG. 8A). *=different from control (DMSO), p<0.05, **=different from compound B, p<0.05. After 4 days of treatment, mice were sacrificed and peripheral blood analyzed for WBC, hematocrit (HCT), hemoglobin concentration (HgI) and platelet count (FIG. 8B). Data are % of control (determination in DMSO-Rx'd mice), mean+/−SD, n=5. *=different from DMSO control, p<0.05.

[14] = test system: normal hematopoietic colony forming cells; assay: colony formation of normal hematopoietic colony forming cells; type: cell-based; conditions: concentrations as high as 10 μM
From the text: as §5

[15] = 48 h, read-out: MTT (IC50, uM) 8226

T1 sequence (Q8TB45 whole entry): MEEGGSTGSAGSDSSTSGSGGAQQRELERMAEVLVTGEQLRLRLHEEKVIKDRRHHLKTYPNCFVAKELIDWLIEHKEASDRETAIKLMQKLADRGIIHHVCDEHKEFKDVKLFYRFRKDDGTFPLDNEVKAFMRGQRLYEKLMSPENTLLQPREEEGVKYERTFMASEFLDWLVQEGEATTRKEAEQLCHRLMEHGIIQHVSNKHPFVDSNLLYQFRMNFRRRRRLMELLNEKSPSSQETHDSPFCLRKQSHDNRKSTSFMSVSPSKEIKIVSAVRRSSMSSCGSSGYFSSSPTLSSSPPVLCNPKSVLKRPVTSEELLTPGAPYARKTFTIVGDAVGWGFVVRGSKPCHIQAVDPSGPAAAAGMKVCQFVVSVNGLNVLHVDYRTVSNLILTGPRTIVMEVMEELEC
T2 sequence (Q8TB45 whole entry): as above
T3 sequence (Q8TB45 whole entry): as above

SMILES | IC50 [1] [µM] | p70 phosphorylation vs compound B at lower concentrations [2] | IC50 [3, 15] [µM] | anti-MM cytotoxicity in MTT assay compared to parent B [3] | apoptosis activity compared to parent compound B [4] | cytotoxicity against RAPTOR-silenced MM cells vs control shSCRAMBLE [5] | therapeutic index (IC50 PBLs/IC50 for 8226 cells) compared to compound B [6] | DEPTOR/mTOR binding in MM cells ([7]; 0.5 uM) | p21 expression compared to parent compound B [8] | inhibition of the DEPTOR-mTOR interaction [9] | other results
Fc1ccc(NN=C2C(Cl)=C(Cl)C(Cl)=C2Cl)cc1 [3k, 1-(4-Fluorophenyl)-2-(perchlorocyclopenta-2,4-dien-1-ylidene)hydrazine] | 1.3 | significantly more effective | 0.7 | enhanced cytotoxic effects | enhanced compared to parent compound B | significantly decreased cytotoxicity | significantly improved therapeutic indices | prevented DEPTOR/mTOR binding | – | – | induction of p70 phosphorylation [2]: much better activity
CC(C)(C)C(=O)NN=C1C(Cl)=C(Cl)C(Cl)=C1Cl [4d, N′-(Perchlorocyclopenta-2,4-dien-1-ylidene)pivalohydrazide] | 2 | significantly more effective | 0.12 | enhanced cytotoxic effects | enhanced compared to parent compound B | – | – | – | enhanced p21 expression | – | –
CC(C)(C)OC(=O)NN=C1C(Cl)=C(Cl)C(Cl)=C1Cl [4g, tert-Butyl 2-(perchlorocyclopenta-2,4-dien-1-ylidene)hydrazine-1-carboxylate] | 0.6 | significantly more effective | 0.1 | enhanced cytotoxic effects | enhanced compared to parent compound B | significantly decreased cytotoxicity | significantly improved therapeutic indices | prevented DEPTOR/mTOR binding | enhanced p21 expression | – | –
CN(C)c1ccc(/C=C2\C=Cc3ccccc32)cc1F [NSC118305] | – | – | – | – | – | – | – | – | – | specifically inhibited the DEPTOR-mTOR interaction | –
CCCCCCCCNS(=O)(=O)c1ccccc1 [NSC119670] | – | – | – | – | – | – | – | – | – | specifically inhibited the DEPTOR-mTOR interaction | –
FC(F)(F)c1cccc(NN=C2C(Cl)=C(Cl)C(Cl)=C2Cl)c1 [compound 3g, 1-(Perchlorocyclopenta-2,4-dien-1-ylidene)-2-(3-(trifluoromethyl)phenyl)hydrazine] | 1 | significantly more effective | 0.17 | enhanced cytotoxic effects | enhanced compared to parent compound B | significantly decreased cytotoxicity | enhanced therapeutic index | prevented DEPTOR/mTOR binding | enhanced p21 expression | – | therapeutic index versus NSC126405 [10]: enhanced therapeutic index; degradation of DEPTOR [11]: induces the rapid proteasome-dependent degradation of DEPTOR; therapeutic index (IC50 PBLs/IC50 for 8226 cells) compared to compound B ([6]; listed as 3 g): significantly improved therapeutic indices; binding of DEPTOR to mTOR ([7]; concentration not given): inhibits binding of DEPTOR to mTOR; therapeutic index versus NSC126405 [12]: enhanced therapeutic index; anti-tumor efficacy (tumor size) [13]: more efficacious than NSC 126405; effect on normal WBC counts ([13]; peripheral blood): only a minimal effect
O=C(c1ccc(F)cc1)N(N=C1C(Cl)=C(Cl)C(Cl)=C1Cl)C(=O)c1ccc(F)cc1 [compound 4e, 4-Fluoro-N-(4-fluorobenzoyl)-N′-(perchlorocyclopenta-2,4-dien-1-ylidene)benzohydrazide] | 0.3 | significantly more effective | 0.25 | enhanced cytotoxic effects | enhanced compared to parent compound B | – | – | – | enhanced p21 expression | – | –
NN=C1C(Cl)=C(Cl)C(Cl)=C1Cl [compound B, (Perchlorocyclopenta-2,4-dien-1-ylidene)hydrazine, reference compound] | 3 | – | – | – | – | – | – | ineffective | – | specifically inhibited the DEPTOR-mTOR interaction | induction of p70 phosphorylation [2]: consistently ineffective; IC50 ([3]; 48 h, read-out: MTT (IC50, uM) 8226, 48 hr): 1.3 µM; IC50 ([3]; read-out: MTT (IC50, uM) 8226, 48 hr): 1.5 µM; toxicity to normal hematopoietic colony formation [14]: not toxic to colony formation; DEPTOR/mTOR binding in MM cells ([7]; 1 uM): prevents DEPTOR/mTOR binding
